According to patent publication US20090264415A2 (priority 2004, published 2009):
Like-named read-outs stand apart in the source and are kept apart here.

Test system: peripheral blood mononuclear cells (PBMC) stimulated with allogeneic PBMC or EBV-transformed human B cells (RPMI1788)
Experiment: Mixed lymphocyte reaction (MLR) assay
Assay type: cell-based
Procedure: Pyrido[3,2-d]pyrimidine derivatives were first dissolved (10 mM) in dimethyl-sulfoxide (hereinafter referred as DMSO) and further diluted in culture medium before use for the following in vitro experiments. […] Some pyrido[3,2-d]pyrimidine derivatives described herein were tested in the following mixed lymphocyte reaction (MLR) assay.
Peripheral blood mononuclear cells (hereinafter referred as PBMC) were isolated from heparinized peripheral blood by density gradient centrifugation over Lymphoprep (Nycomed, Maorstua, Norway). Allogeneic PBMC or Eppstein-Barr Virus-transformed human B cells [commercially available under the trade name RPM11788 (ATCC name CCL156)] which strongly express B7-1 and B7-2 antigens were used as stimulator cells after irradiation with 30 Gy. MLR was performed in triplicate wells. After 5 days incubation at 37° C., 1 μCi [^3H]-thymidine was added to each cup. After a further 16 hours incubation, cells were harvested and counted in a β-counter. Inhibition of proliferation by a compound described in some of the present examples was counted while using the formula: [formula] wherein cpm is the thymidine count per minute. The MLR assay is regarded by those skilled in the art as an in vitro analogue of the transplant rejection since it is based on the recognition of allogeneic major histocompatibility antigens on the stimulator leukocytes, by responding lymphocytes.

[1] = Homo sapiens, RPMI-1788, MLR assay of example 319, read-out: MLR IC50
[2] = 50% suppression of the MLR, [3H]-thymidine incorporation, read-out: MLR

Structure (SMILES)	IC50 [1] [nM]	other results
COc1c(C)cc(-c2ccc3nc(N)nc(N4CCN(C(=O)COc5ccc(Cl)cc5)CC4)c3n2)cc1C [Example 502, 2-amino-4-[N-(4-chlorophenoxyacetyl)-piperazin-1-yl]-6-(3,5-dimethyl-4-methoxyphenyl)-pyrido(3,2-d)pyrimidine]	78	
COc1ccc(-c2ccc3nc(N)nc(N)c3n2)cc1OC [Example 256, 2,4-diamino-6-(3,4-dimethoxyphenyl)-pyrido[3,2-d]pyrimidine]		IC50 (Homo sapiens, RPMI-1788, 50% suppression of the MLR, [3H]-thymidine incorporation, read-out: MLR): 600 nM
CC(C)(C)OC(=O)NC(Cc1ccc(Cl)cc1)C(=O)N1CCN(c2nc(N)nc3ccc(-c4ccc(F)cc4)nc23)CC1 (stereo in doubt) [Example 477, (S)-[2-{4-[2-amino-6-(4-fluorophenyl)-pyrido[3,2-d]pyrimidin-4-yl]-piperazin-1-yl}-1-(4-chlorobenzyl)-2-oxoethyl]-carbamic acid tert-butyl ester]	4900	
Nc1nc(NC2CCN(C(=O)COc3ccc(Cl)cc3)CC2)c2nc(-c3ccc(F)cc3)ccc2n1 [Example 480, 2-amino-4-[1-(4-chlorophenoxyacetyl)piperid-4-ylamino]-6-(4-fluorophenyl)-pyrido[3,2-d]pyrimidine]	2200	
C=CC(=O)N1CCN(c2nc(N)nc3ccc(-c4ccc(OC)c(OC)c4)nc23)CC1 [Example 393, 2-amino-4-[4-(2-propenoyl)piperazin-1-yl]-6-(3,4-dimethoxyphenyl)-pyrido[3,2-d]pyrimidine]	400	
CC(C)(C)OC(=O)N[C@@H]1CCN(c2nc(N)nc3ccc(-c4ccc(F)cc4)nc23)C1 [Example 575, 2-amino-4-[(R)-3-Boc-amino-pyrrolidin-1-yl]-6-(4-fluorophenyl)-pyrido(3,2-d)pyrimidine]	> 10000	
COc1cc(-c2ccc3nc(N)nc(N4CCOCC4)c3n2)ccc1OC1CCCC1 [Example 98, 2-amino-4-(N-morpholino)-6-(4-cyclopentyloxy-3-methoxyphenyl)-pyrido[3,2-d]pyrimidine]		IC50 [2]: 7600 nM
Nc1nc(N2CCN(C(=O)COc3ccc(Cl)cc3)CC2)c2nc(-c3ccc4c(c3)CCO4)ccc2n1 [Example 497, 2-amino-4-[N-(4-chlorophenoxyacetyl)-piperazin-1-yl]-6-(2,3-dihydro-1-benzofuran-5-yl)-pyrido(3,2-d)pyrimidine]	210	
Nc1cccc(-c2ccc3nc(N)nc(N4CCN(C(=O)COc5ccc(Cl)cc5)CC4)c3n2)c1 [Example 419, 2-amino-4-[4-(4-chlorophenoxyacetyl)piperazin-1-yl]-6-(3-aminophenyl)pyrido-[3,2-d]pyrimidine]	20	
Nc1nc(N2CCN(C(=O)COc3ccc(Cl)cc3)CC2)c2nc(-c3ccc(Cl)cc3Cl)ccc2n1 [Example 427, 2-amino-4-[4-(4-chlorophenoxyacetyl)piperazin-1-yl]-6-(2,4-dichlorophenyl)-pyrido-[3,2-d]pyrimidine]	300	
Nc1nc(N2CCN(C(=O)COc3ccc(Cl)cc3)CC2)c2nc(-c3ccccc3Cl)ccc2n1 [Example 430, 2-amino-4-[4-(4-chlorophenoxyacetyl)piperazin-1-yl]-6-(2-chlorophenyl)pyrido-[3,2-d]pyrimidine]	40	
Cc1cccc(NC(=O)N2CCN(c3ncnc4ccc(-c5ccc(F)cc5)nc34)CC2)c1 [Example 558, 4-[(3-methylphenylcarbamoyl)-piperazin-1-yl]-6-(4-fluorophenyl)pyrido[3,2-d]pyrimidine]	39	
Nc1nc(N2CCN(C(=O)NC34CC5CC(CC(C5)C3)C4)CC2)c2nc(-c3ccc(F)cc3)ccc2n1 [Example 453, 2-amino-4-{4-[N-(1-adamantylcarbamoyl)]-piperazin-1-yl}-6-(4-fluorophenyl)-pyrido[3,2-d]pyrimidine]	4000	
Nc1nc(N2CCN(C(=O)COc3ccc(Cl)cc3)CC2)c2nc(-c3ccc(F)c(Cl)c3)ccc2n1 [Example 408, 2-amino-4-[4-(4-chlorophenoxyacetyl)piperazin-1-yl]-6-(3-chloro-4-fluorophenyl)-pyrido-[3,2-d]pyrimidine]	200	
CC(C)(C)OC(=O)NCC(=O)N1CCN(c2nc(N)nc3ccc(-c4ccc(F)cc4)nc23)CC1 [Example 434, 2-amino-4-{4-[N-(tert-butoxycarbonyl)-glycyl]-piperazin-1-yl}-6-(4-fluorophenyl)-pyrido[3,2-d]pyrimidine]	93	
Cc1cccc(NC(=O)N2CCN(c3nc(NC4CCCC4)nc4ccc(-c5ccc(F)cc5)nc34)CC2)c1 [Example 571, 2-cyclopentylamino-6-(4-fluorophenyl)-4-[(3-methylphenylcarbamoyl)-piperazin-1-yl]-pyrido[3,2-d]pyrimidine]	500	
Cc1cccc(NC(=O)N2CCN(c3nc(N)nc4ccc(-c5cccc(C#N)c5)nc34)CC2)c1 [Example 545, 2-amino-4-[(3-methylphenylcarbamoyl)-piperazin-1-yl]-6-(3-cyanophenyl)-pyrido[3,2-d]pyrimidine]	30	

Structure (SMILES)	IC50 [1] [nM]	other results
CCOc1ccc(-c2ccc3nc(N)nc(N4CCN(C(=O)COc5ccc(Cl)cc5)CC4)c3n2)cc1 [Example 494, 2-amino-4-[N-(4-chlorophenoxyacetyl)-piperazin-1-yl]-6-(4-ethoxyphenyl)-pyrido(3,2-d)pyrimidine]	33	
Cc1cccc(NC(=O)N2CCN(c3nc(N)nc4ccc(-c5ccc(C#N)cc5)nc34)CC2)c1 [Example 543, 2-amino-4-[(3-methylphenylcarbamoyl)-piperazin-1-yl]-6-(4-cyano-phenyl)-pyrido[3,2-d]pyrimidine]	30	
COc1ccc(-c2ccc3nc(N)nc(N4CCN(C(=O)COc5ccccc5)CC4)c3n2)cc1OC [Example 60, 2-amino-4-[(N-phenoxy-acetyl)-piperazin-1-yl]-6-(3,4-dimethoxyphenyl)-pyrido[3,2-d]pyrimidine]		IC50 [2]: 53 nM
Cc1noc(C)c1-c1ccc2nc(N)nc(N3CCN(C(=O)COc4ccc(Cl)cc4)CC3)c2n1 [Example 411, 2-amino-4-[4-(4-chlorophenoxyacetyl)piperazin-1-yl]-6-(3,5-dimethylisoxazol-4-yl)pyrido-[3,2-d]pyrimidine]	34	
COc1ccc(-c2ccc3nc(Nc4ccc(F)c(Cl)c4)nc(N4CCN(C(=O)Nc5cccc(C)c5)CC4)c3n2)cc1OC [Example 92]		IC50 [2]: 1200 nM
CC(C)(C)OC(=O)N1CCN(c2nc(Cl)nc3ccc(-c4ccc(F)cc4)nc23)CC1 [Example 566, 2-chloro-6-(4-fluorophenyl)-4-(4-Boc-piperazino)pyrido[3,2-d]pyrimidine]	> 10000	
COc1ccc(-c2ccc3nc(N)nc(N4CCN(C(=O)CNC(=O)OC(C)(C)C)CC4)c3n2)cc1OC [Example 396, 2-amino-4-{4-[N-(tert-butoxycarbonyl)-glycyl]-piperazin-1-yl}-6-(3,4-di-methoxyphenyl)-pyrido[3,2-d]pyrimidine]	50	
COCc1cccc(-c2ccc3nc(N)nc(N4CCN(C(=O)COc5ccc(Cl)cc5)CC4)c3n2)c1 [Example 500, 2-amino-4-[N-(4-chlorophenoxyacetyl)-piperazin-1-yl]-6-(3-methoxy-methylphenyl)-pyrido(3,2-d)pyrimidine]	31	
O=C(Nc1cccc(Cl)c1)N1CCN(c2ncnc3ccc(Cl)nc23)CC1 [Example 70, 4-[(N-3-chlorophenylcarbamoyl)-piperazin-1-yl]-6-chloro-pyrido[3,2-d]pyrimidine]		IC50 [2]: 3400 nM
Cc1cccc(NC(=O)N2CCN(c3ncnc4ccc(-c5ccc(F)c(C)c5)nc34)CC2)c1 [Example 555, 4-[(3-methylphenylcarbamoyl)-piperazin-1-yl]-6-(3-methyl-4-fluoro-phenyl)pyrido[3,2-d]pyrimidine]	300	
Nc1nc(N2CCN(C(=O)COc3ccc(Cl)cc3)CC2)c2nc(-c3cccnc3)ccc2n1 [Example 409, 2-amino-4-[4-(4-chlorophenoxyacetyl)piperazin-1-yl]-6-(pyridin-3-yl)pyrido-[3,2-d]pyrimidine]	5	
CCN(CC)C(=O)N1CCN(c2nc(N)nc3ccc(-c4ccc(F)cc4)nc23)CC1 [Example 463, 2-amino-4-[4-(diethylcarbamoyl)piperazin-1-yl]-6-(4-fluorophenyl)-pyrido[3,2-d]pyrimidine]	600	
Nc1nc(N2CCN(C(=O)COc3ccc(Cl)cc3)CC2)c2nc(Cl)ccc2n1 [Example 492, 2-amino-4-(N-(4-chlorophenoxyacetyl)-piperazin-1-yl)-6-chloro-pyrido[3,2-d]pyrimidine]	80	
Nc1nc(N2CCN(C(=O)COc3ccc(Cl)cc3)CC2)c2nc(-c3cc(Cl)ccc3F)ccc2n1 [Example 431, 2-amino-4-[4-(4-chlorophenoxyacetyl)piperazin-1-yl]-6-(5-chloro-2-fluorophenyl)-pyrido-[3,2-d]pyrimidine]	330	
COc1ccc(-c2ccc3nc(Nc4ccc(C)cc4)nc(N4CCN(C(=O)Nc5cccc(C)c5)CC4)c3n2)cc1OC [Example 91, 2-(p-tolylamino)-4-[(N-3-methylphenylcarbamoyl)-piperazin-1-yl]-6-(3,4-dimethoxy-phenyl)-pyrido[3,2-d]pyrimidine]		IC50 [2]: 800 nM
COc1ccc(-c2ccc3nc(N)nc(N4CCN(C(=O)COc5ccc(Cl)cc5)CC4)c3n2)cn1 [Example 410, 2-amino-4-[4-(4-chlorophenoxyacetyl)piperazin-1-yl]-6-(2-methoxypyridin-5-yl)pyrido-[3,2-d]pyrimidine]	9	
